The results in this text go back to patent US6916851B2, “Skin care cosmetic methods of sebum control using carboxyalkylates of branched alcohols and/or alkoxylates thereof” (Unilever Home & Personal Care USA, a division of Conopco, …, priority 2002, dated 2005).

In this assay the test system is human sebocytes. Kind of assay: Inhibition of sebocyte lipogenesis (14C-acetate label remaining in sebocytes). In kind it is cell-based. The following applies: for IC50: read-out: IC 50 (concentration which provides a 50% sebum suppression relative to the control); for IC50 / radioactive label remaining in the sebocytes, % of Control: 20 hour incubation, 96 well plate; for radioactive label remaining in the sebocytes, % of Control: lower = greater inhibition of lipogenesis; for inhibition of lipogenesis, in words: all tested concentrations (1, 10, 100 μM). The protocol: Secondary cultures of human sebocytes obtained from an adult […] were grown in 96-well tissue culture plates (Packard Co.; Meriden, Conn.) until confluent. Sebocyte growth medium consisted of Clonetics Keratinocyte Basal Medium (KBM) supplemented with 14 μg/ml bovine pituitary extract, 0.4 μg/ml hydrocortisone, 5 μg/ml insulin, 10 ng/ml epidermal growth factor, 1.2×10^−10 M cholera toxin, 100 units/ml penicillin, and 100 μg/ml streptomycin. All cultures were incubated at 37° C. in the presence of 7.5% CO2. Medium was changed three times per week.
On the day of experimentation, the growth medium was removed and the sebocytes washed three times with sterile Dulbecco's Modified Eagle Medium (DMEM; phenol red free). Fresh DMEM was added to each sample (duplicates, triplicates, or quadruplicates depending on the experiment) with 5 μL of test agent solubilized in ethanol or sterile, distilled water. Controls consisted of addition of ethanol alone or phenol red. Phenol Red, a known sebum suppressive agent, was employed as a positive control.
Each plate was returned to the incubator for 20 hours followed by the addition of ^14C-acetate buffer (5 mM final concentration, 56 mCi/mmol specific activity). Sebocytes were returned to the incubator for four hours after which each culture was rinsed three times with phosphate buffered saline to remove unbound label. Radioactive label remaining in the sebocytes was harvested and counted using a TopCount-NXT brand scintillation counter (Packard Co., Meriden, Conn.).
The results that were obtained, expressed in terms of amount of radioactive label remaining in the sebocytes as a percent of control, are summarized in Table 2. A lower radioactive label, i.e. a lower % of control, indicates a greater inhibition of sebocyte lipogenesis.
The experiments were conducted using the procedure set forth in the Example 3 above, with the concentrations of the compounds varied, in order to determine the concentration for each compound tested which provide a 50% sebum suppression.

Marks after values point to notes of the source that are not given here.

As to “C13 isoalcohol propionitrile [Compound 2]”, the IC50 is over 100 µM.

Take “C13 isoalcohol oxypropyl amine [Compound 3]”: the IC50 is about 100 µM.

On to C13 isoalcohol glycerol [Compound 5], for which the IC50 was over 100 µM.

In the case of “iso-tridecyloxy propionic acid [Compound 1]”, the “inhibition of lipogenesis, in words” value is “enhanced inhibition of lipogenesis at all tested concentrations” and the IC50 was 5 µM. Moreover, the “radioactive label remaining in the sebocytes, % of Control” value (1 μM) is reported as 48.7* % of Control. The “radioactive label remaining in the sebocytes, % of Control” value (10 μM) is 34.6* % of Control. Moreover, the “radioactive label remaining in the sebocytes, % of Control” value (100 μM) is 11.9* % of Control. Also, under “comparison of Table 2 data”, the “effectiveness in inhibition of lipogenesis relative to TDCM” value is listed as “almost twice as effective as TDCM”. Further, the “activity as sebum suppressant relative to the branched alcohol from which it is derived” value (from IC50 of Table 3) is on record as “about 20 times”.

As for C13 isoalcohol [Compound 4], the IC50 turned out to be 100 µM.

On to tridecylcarboxymethylate [TDCM], for which the “inhibition of lipogenesis, in words” value is “enhanced inhibition of lipogenesis at all tested concentrations”. In addition, where the note is “1 μM”, the “radioactive label remaining in the sebocytes, % of Control” value is 84.8* % of Control. Where the note is “10 μM”, the “radioactive label remaining in the sebocytes, % of Control” value is given as 43.4* % of Control. Besides, the “radioactive label remaining in the sebocytes, % of Control” value (100 μM) is recorded as 22.8* % of Control.

Regarding `O=S1(=O)OC(c2ccc(O)cc2)(c2ccc(O)cc2)c2ccccc21` [Phenol Red], the “radioactive label remaining in the sebocytes, % of Control” value (100 μM) is 46.3* % of Control.
